{"source": "patent US9020605B2", "about": "“Electroporation device” (OncoSec Medical Incorporated, priority 2012, dated 2015)", "origin": "cited, not measured here", "conditions": "P being the partition coefficient between octanol and water"}
{"substance": "bleomycin", "values": [{"measurement": "log P", "result": "very negative"}]}
